{
  "source": "patent US20090274714A1",
  "about": "“TUMOUR-ASSOCIATED PEPTIDES BINDING TO HUMAN LEUKOCYTE ANTIGEN (HLA) CLASS I OR II MOLECULES AND RELATED ANTI-CANCER VACCINE” (Immatics Boitechnologies GmhH, priority 2005, published 2009)",
  "key": {"CD4-positive T-cells": {"system": "CD4-positive T-cells", "assay": "Intracellular IFNγ staining of in vitro primed CD4-positive T-cells", "format": "cell-based, human", "procedure": "First, CD4-positive T-cells were generated (primed) in vitro by repeated stimulation of peripheral blood mononuclear cells (PBMC) from healthy donors with the specific peptide to be tested in the presence of IL-12. The priming was performed using autologous dendritic cells generated from blood monocytes of the donors. In the second step, the activity of primed CD4-positive T-cells specific for the given peptide were tested by measurement of IFNγ production by intracellular IFNγ staining using a fluorescently labelled antibody. The analysis was done by flow cytometry (FACS).\nHuman DCs were prepared out of PBMCs from freshly drawn blood from healthy donors. PBMCs were isolated using a Ficoll density gradient (Lymphocyte Separation Medium, PAA Laboratories GmbH, Pasching, Austria). The obtained cells were washed, resuspended in X-Vivo 15 medium supplemented with 50 U/ml penicillin, 50 μg/ml streptomycin and 2 mM L-Glutamine (BioWhittaker, Verviers, Belgium) and plated at a density of 7×10^6 cells/ml. […]\nCryopreserved PBMCs were thawed, washed two times in X-Vivo 15 medium, resuspended at 10^7 cells/ml in T-cell medium and cultured overnight to reduce unspecific IFNγ production (Provenzano 2002). […] Cells were analyzed using a Cytofix/Cytoperm Plus kit (Becton Dickinson) and CD4-FITC− (Immunotools), IFNγ-PE- and CD8-PerCP clone SKI-antibodies (Becton Dickinson). After staining, cells were analyzed on a three-color FACSCalibur (Becton Dickinson).\nTo generate antigen-specific CD4-positive T-cells and to test the peptide on promiscuous binding, PBMCs of 4 healthy donors with different HLA-DR alleles (FIG. 7) were stimulated using peptide-pulsed autologous DCs. As a read-out system for the generation of antigen-specific CD4-positive T-cells IFNγ production was assessed by flow cytometry. T-cells were analyzed after the third and the fourth stimulation by intracellular IFNγ staining plus CD4-FITC and CD8-PerCP staining to determine the percentage of IFNγ-producing cells in specific T-cell subpopulations. […]"}, "T-cells [1]": {"system": "T-cells", "assay": "Summary of in vitro immunogenicity (killer assay, cytokine release/staining, tetramer detection)", "format": "cell-based, human", "settings": "reference: unpublished", "procedure": "As in the latter case, several tumour cell lines endogenously expressing the antigen are also recognized.\nIMA contains 10 HLA class I-binding peptides. To test the peptides regarding their in vitro immunogenicity, CD8-positive cytotoxic T-cells were generated from autologous peripheral blood mononuclear cells (PBMC) from healthy donors using single peptides contained in IMA and the activity of these cytotoxic T-cells was tested with chromium release assays and detection of T-cells with HLA tetramers in flow cytometry. Detailed data is shown for one exemplary peptide (IMA-MET-001) for both methods, the data for the other peptides is summarized in Table 8 above.\nIn the first step, cytotoxic T-cells are generated (primed) in vitro by repeated stimulation of peripheral blood mononuclear cells (PBMC) from healthy HLA-A*02 positive donors with the specific peptide to be tested. The priming can be done either using autologous dendritic cells generated from blood monocytes of the donor or using HLA tetramer-loaded beads.\nA. Cytotoxic killing of target: In the second step, cytoxicity of such primed cytotoxic T-cells (CTLs) are tested by labelling target cells with radioactive chromium and incubating target cells with generated CTLs. The amount of radioactive chromium released into the supernatant can be correlated directly to proportion of killed target cells.\nB. Detection of T-cells with HLA tetramers: Alternatively, in the second step primed CTLs with specificity for a given peptide are detected using HLA tetramers. Tetramers consist of four peptide-loaded HLA-A*02 molecules coupled to each other. These constructs allow specific labelling of the cognate T-cell receptor that recognizes the HLA-peptide-complex in the tetramer and by labelling of the tetramer with a fluorochrome followed by analysis in flow cytometry (FACS)."}, "[2]": {"assay": "Physico-chemical characteristics: solubility", "settings": "solvent giving clear and colourless solution at 1 mg/ml"}, "T-cells [3]": {"system": "T-cells", "settings": "reference: published literature; cited from earlier work"}, "[4]": {"settings": "University of Tübingen trial, cited from earlier work"}, "renal cell carcinoma": {"system": "renal cell carcinoma", "settings": "monotherapy, advanced RCC; cited from earlier work"}, "T-cells [5]": {"system": "T-cells", "settings": "peptide not vaccinated; not present prior to vaccination; 2 RCC patients; cited from earlier work"}, "[6]": {"system": "peptide loaded T2 cells and autologous DC", "settings": "cited from earlier work"}, "[7]": {"system": "HLA-A*02 positive cell lines HCT 116, A498, MZ 1257, MCF-7, MeI 1479 and U266 that express c-Met", "settings": "HLA-A2+/c-Met+ cell lines; SK-OV-3, Croft, K 562 not recognized; cited from earlier work"}, "U 266 and A 498": {"system": "U 266 and A 498", "settings": "inhibitor to target ratio 20:1; cited from earlier work"}, "[8]": {"molecular_target": "T1, biotinylated recombinant HLA-A*0201 molecules lacking the transmembrane domain (human, biotinylated at the carboxy terminus of the heavy chain)", "T1 construct": "tetramerised on streptavidin-PE or streptavidin-APC at a 4:1 molar ratio, or coupled to streptavidin beads; also called HLA-A*0201 tetramer; HLA tetramers", "assay": "tetrameric recombinant HLA-A*0201 multimer loaded with the peptide, flow cytometry reagent"}, "[9]": {"molecular_target": "T1, biotinylated recombinant HLA-A*0201 …", "assay": "recombinant HLA-A*0201 refolded with the peptide, used on beads and as tetramer"}},
  "note": "Like-named read-outs stand apart in the source and are kept apart here. Ends that are not written are not given here.",
  "data": [
    {"molecule": "SQDDIKGIQKLYGKRS-OH [IMA-MMP-001]", "values": [
      {"measurement": "healthy donors in whom CD4-positive T-cell responses were elicited", "setting": "CD4-positive T-cells; 4 healthy donors with different HLA-DR alleles, positive if more than two fold over negative control", "value": "three out of four"},
      {"measurement": "CD4-positive T-cell reactivity (intracellular IFN gamma)", "setting": "CD4-positive T-cells; Donor 1, 2 and 3, after the third and the fourth stimulation", "value": "showed CD4-positive T-cells reactive"},
      {"measurement": "CD4-positive T-cell reactivity (intracellular IFN gamma)", "setting": "CD4-positive T-cells; Donor 4", "value": "always negative"},
      {"measurement": "In vitro immunogenicity (assay by which shown)", "setting": "T-cells [1]", "value": "Cytokine staining"}
    ]},
    {"molecule": "SVFAGVVGV-OH [IMA-GUC-001]", "values": [
      {"measurement": "Solubility (Clear and colourless solution 1 mg/ml)", "setting": "[2]", "value": 90, "unit": "% acetic acid"}
    ]},
    {"molecule": "STAPPVHNV-OH [IMA-MUC-001]", "values": [
      {"measurement": "In vitro immunogenicity (assay by which shown)", "setting": "T-cells [3]", "value": "Killer assay, cytokine release"},
      {"measurement": "autoimmune effects", "setting": "[4]; administered with autologous dendritic cells", "value": "no autoimmune effects"},
      {"measurement": "tolerability", "setting": "[4]; loaded on dendritic cells", "value": "very well tolerated"},
      {"measurement": "Solubility (Clear and colourless solution 1 mg/ml)", "setting": "[2]", "value": 10, "unit": "% acetic acid"}
    ]},
    {"molecule": "LLGATCMFV-OH [IMA-CCN-001]", "values": [
      {"measurement": "In vitro immunogenicity (assay by which shown)", "setting": "T-cells [3]", "value": "Killer assay (allogeneic T cells)"},
      {"measurement": "Solubility (Clear and colourless solution 1 mg/ml)", "setting": "[2]", "value": 50, "unit": "% acetic acid"}
    ]},
    {"molecule": "LAALPHSCL-OH [IMA-RGS-001]", "values": [
      {"measurement": "Solubility (Clear and colourless solution 1 mg/ml)", "setting": "[2]", "value": "water"},
      {"measurement": "In vitro immunogenicity (assay by which shown)", "setting": "T-cells [1]", "value": "Tetramer detection"}
    ]},
    {"molecule": "ALADGVQKV-OH [IMA-APO-001]", "values": [
      {"measurement": "Solubility (Clear and colourless solution 1 mg/ml)", "setting": "[2]", "value": "water"}
    ]},
    {"molecule": "IFNα", "values": [
      {"measurement": "response rate, initially reported", "setting": "renal cell carcinoma", "value": "25-30%"},
      {"measurement": "true response rate suggested by additional trials", "setting": "renal cell carcinoma", "value": "about 10%"}
    ]},
    {"molecule": "SVASTITGV-OH [IMA-ADF-001]", "values": [
      {"measurement": "In vitro immunogenicity (assay by which shown)", "setting": "T-cells [3]", "value": "Killer assay"},
      {"measurement": "specific T-cells after vaccination with non-related MUC peptides (epitope spreading)", "setting": "T-cells [5]", "value": "detected"},
      {"measurement": "Solubility (Clear and colourless solution 1 mg/ml)", "setting": "[2]", "value": 10, "unit": "% acetic acid"}
    ]},
    {"molecule": "VMAGDIYSV-OH [IMA-ADF-002]", "values": [
      {"measurement": "Solubility (Clear and colourless solution 1 mg/ml)", "setting": "[2]", "value": 10, "unit": "% acetic acid"},
      {"measurement": "In vitro immunogenicity (assay by which shown)", "setting": "T-cells [1]", "value": "Tetramer detection"}
    ]},
    {"molecule": "ALFDGDPHL-OH [IMA-K67-001]", "values": [
      {"measurement": "Solubility (Clear and colourless solution 1 mg/ml)", "setting": "[2]", "value": 20, "unit": "% acetic acid"},
      {"measurement": "In vitro immunogenicity (assay by which shown)", "setting": "T-cells [1]", "value": "Tetramer detection"}
    ]},
    {"molecule": "YVDPVITSI-OH [IMA-MET-001]", "values": [
      {"measurement": "cytotoxicity of induced CTL against peptide-loaded targets", "setting": "[6]", "value": "antigen-specific killing"},
      {"measurement": "In vitro immunogenicity (assay by which shown)", "setting": "T-cells [3]", "value": "Killer assay, cytokine staining, tetramer"},
      {"measurement": "lysis of tumour cells endogenously expressing c-Met by induced CTL", "setting": "[7]", "value": "able to efficiently lyse malignant cells expressing both HLA-A2 and c-Met"},
      {"measurement": "effect of cold T2-cells pulsed with cognate peptide on lysis of tumour cells", "setting": "U 266 and A 498", "value": "reduced the lysis of tumour cells"}
    ]},
    {"molecule": "LLGATCMFV (HLA class I TUMAP; not identified by elution from tumour tissue; also called rCCN-001; CNN-001)", "note": "[IMA-CCN-001 (peptide from Cyclin D1)]", "values": [
      {"measurement": "binding result", "setting": "[8]", "value": "binds"}
    ]},
    {"molecule": "ALFDGDPHL (HLA class I TUMAP)", "note": "[IMA-K67-001 (peptide from KIAA0367)]", "values": [
      {"measurement": "binding result", "setting": "[8]", "value": "binds"}
    ]},
    {"molecule": "YVDPVITSI (HLA class I TUMAP; also called c-Met peptide)", "note": "[IMA-MET-001 (peptide from c-met proto-oncogene)]", "values": [
      {"measurement": "binding result", "setting": "[9]", "value": "binds"}
    ]}
  ]
}
